“Also recorded” adds a separate entry of the source.

Series [1] has as its system human T-cell lymphoma cell line, Jurkat. Put plainly: In vitro cell proliferation assay (MTS) after HAL and/or 8-MOP plus light. It is filed as cell-based. To be noted: for Dark toxicity (MTS assay): no light. On the procedure:
The human T-cell lymphoma cell line, Jurkat (ATCC number: TIB-152TM), growing in suspensions at passages 4-24 was used in the study. […] For subcultivation, the cells were diluted to a density of 3×10^5 cells/ml every second day. […] The cells were collected from the cultivation flasks, centrifuged at 1400 rpm for 5 min and diluted in the serum-free RPMI 1640 medium to a density of 37.5×10^5 cells/ml. Eighty microliters of cell suspension were portioned into 96 well plates. […] For the UV-A irradiation of samples, a home-made UV-A lamp (Sorensen UV-A lamp, Phillips Th […]/09) emitting light mainly in the region 340-410 nm was used (FIG. 1). For the blue light illumination of samples, the light from a bank of four fluorescent tubes (model 3026, Applied Photophysics, London, United Kingdom) emitting light mainly in the region 410-500 nm with a maximum around 440 nm was used (FIG. 1). […] Twenty four hours after irradiation, 20 μl of MTS (Promega Corporation, Madison, Wis.) was added to each well. Absorbance at 492 nm was measured after one hour incubation at 37° C. by means of a well plate reader (Multiskan Ex, Labsystems, Finland).

Series [2] concerns Jurkat cells. Put plainly: In vitro long term cell survival assay in methylcellulose-based semisolid medium. Details: species or system human. Here is the method:
The cells were collected from the cultivation flasks, centrifuged at 1400 rpm for 5 min and diluted in the serum-free RPMI 1640 medium to a density of 37.5×10^5 cells/ml. Eighty microliters of cell suspension were portioned into 96 well plates. […] For the UV-A irradiation of samples, a home-made UV-A lamp (Sorensen UV-A lamp, Phillips Th […]/09) emitting light mainly in the region 340-410 nm was used (FIG. 1). For the blue light illumination of samples, the light from a bank of four fluorescent tubes (model 3026, Applied Photophysics, London, United Kingdom) emitting light mainly in the region 410-500 nm with a maximum around 440 nm was used (FIG. 1). Methylcellulose-based medium human MethoCult® with recombinant cytokines, (H4034, StemCell Technologies, France) was used for survival assay. […] The samples were treated according to the manufacturer's instructions and suspensions were transferred into 35 mm Petri dishes. They were incubated at 37° C. in a humidified incubator with 5% CO2.

Series [3] concerns Jurkat cells. Description: Assessment of apoptotic cells by fluorescence microscopy (Hoechst 33342 / PI). It is filed as cell-based, human. On the procedure: The cells were collected from the cultivation flasks, centrifuged at 1400 rpm for 5 min and diluted in the serum-free RPMI 1640 medium to a density of 37.5×10^5 cells/ml. Eighty microliters of cell suspension were portioned into 96 well plates. […] For the UV-A irradiation of samples, a home-made UV-A lamp (Sorensen UV-A lamp, Phillips Th […]/09) emitting light mainly in the region 340-410 nm was used (FIG. 1). For the blue light illumination of samples, the light from a bank of four fluorescent tubes (model 3026, Applied Photophysics, London, United Kingdom) emitting light mainly in the region 410-500 nm with a maximum around 440 nm was used (FIG. 1). Apoptotic cells were identified by fluorescence microscopy based on nuclear morphology after staining with 4.0 μg/mI Hoechst 33342 (Sigma, St. Louis, Mo.) at 37° C. for 10 min. This assay was verified in our previous experiments. […] For PI fluorescence detection, the filter combination consisted of a 540/25 nm excitation filter, a 565 nm beam splitter, and a 605/55 nm band-pass emission filter. Fluorescence images were captured by a highly light sensitive thermo-electrically cooled charge-coupled device camera […] (Hamamatsu, Japan).

The subject of the next series is humans. As to conditions: oral ALA; normally resolves after 48 hours; cited from earlier work.
The test system of another series is mice. To be noted: cited from earlier work.
Series [4] has as its system Jurkat human T-cell lymphoma cells. Put plainly: ALA/UVA killing of Jurkat cells (PI staining). In kind it is cell-based. As to conditions: 1 mM ALA for 1 hour, 10% foetal bovine serum, then UVA light exposure. On the procedure:
Optimization of experimental conditions for ALA-ECP was performed in Jurkat cells, varying ALA concentration (1 to 5 mM) and treatment time (1 to 4 hours) in the presence of 10% foetal bovine serum. The cells were then exposed to UVA for 10 min using an UV-A lamp with almost identical emission spectra to those of the UV-A lamp used in the existing commercial Therakos photopheresis system. The cell survival after the ALA/UVA treatment was measured by fluorescence microscopy with propidium iodide (PI) staining.

The test system of series [5] is CD4+ T lymphocytes collected from a GvHD patient. Description: Ex vivo ALA-ECP killing of patient CD4+ T lymphocytes (flow cytometry). In kind it is cell-based, human. As to conditions: particularly at a low light dose, 5-min light illumination. On the procedure: (§1) A suitable dose and incubation time of ALA was used in leukocyte samples collected from ECP patients. The dark toxicity of ALA at the concentration in question was evaluated, followed by the ALA/UVA-mediated killing efficiency before studies on the mechanism of its action (apoptosis/necrosis). The lymphocytes from patients were incubated with ALA under the optimized experimental conditions before exposure to the UVA lamp in the Therakos Photopheresis System at the same light dose as used in the ECP treatment. The cell survival of ALA dark toxicity, ALA/UVA-mediated killing efficiency and apoptosis/necrosis were measured with flow cytometry using combined labelling of CD4^+ or CD8^+ with Annexin V/PI staining.
(§2) The killing effects of 5-ALA (a porphyrin precursor) plus the UVA light irradiation on CD4^+/CD8^+ T lymphocytes collected from a Graft versus Host Disease (GvHD) patient who went to a standard photopheresis treatment was evaluated. The cells were exposed to ALA+UVA in the standard photopheresis machine, and percentage survival evaluated at various timepoints between 1 h and 20 h. The 8-MOP plus UVA used for the standard photopheresis was also included for comparison. The cell survival was measured with flow cytometry using a combined staining of CD4/CD8 antibody, Annexin-V and eFluor450.
For orientation: Flow cytometry measures light scatter and fluorescence of single cells or particles in a stream.

For series [6], the system named is CD8+ T lymphocytes collected from a GvHD patient. Description: Ex vivo ALA-ECP killing of patient CD8+ T lymphocytes (flow cytometry). In kind it is cell-based, human. To be noted: particularly at a low light dose, 5-min light illumination. On the procedure:
as §1, §2

Series [7] relates to human leukocytes from GvHD or CTLC patients. Description: 5-ALA dark toxicity on human leukocytes. It is filed as cell-based. As to conditions: 10 mM 5-ALA, 17-24 hours, no light.
Protocol: The general safety of 5-ALA in absence of light-mediated activation (dark toxicity) was next evaluated. Blood samples from 10 GvHD or CTLC patients were treated with 10 mM 5-ALA at 37° C. in a 5% CO2 humidified incubator overnight (17-24 hours). Buffy coat samples from patients were directly harvested from the Therakos Photopheresis System during the standard photopheresis treatment. The cells incubated with the culture medium containing no 5-ALA were also included as a control in all individuals. The leukocytes were then labelled with antibodies for flow cytometry analysis of various subpopulations. The antibodies used were: CD45 PerCP-Cyanine5.5 for leukocytes, CD4 FITC for T helper cells, CD8 FITC for T cytotoxic cells and CD19 FITC for B-cells. The cells were also labelled with Fixable Viability Dye eFluor 450 for dead cells and Annexin V for apoptotic/dead cells. The different subpopulations of leukocytes were gated out and analyzed for cell viability. The cells that were negative for both the Fixable Viability Dye eFluor 450 and Annexin V were considered as viable cells.
Series [8] deals with Proliferative (transformed or activated) T-cells. Description: ALA-induced PpIX production in proliferative versus resting T-cells. It is filed as cell-based.
In another series the test system is rats. To be noted: cited from earlier work.

For `COc1c2occc2cc2ccc(=O)oc12` [8-MOP, 8-methoxypsoralen], the “ability to sensitise the cells to photoinactivation when UV-A lamp spectrum shifted by few nm” value in series [1] (1.00 μM 8-MOP) was “significantly increased”. In series [1] (1.00 μM 8-MOP, blue light), the “Effect of presence of 8-MOP on cell proliferation during HAL-based PDT with blue light” value is “did not affect cell proliferation”. For the same compound, the “Dark toxicity (MTS assay)” value in series [1] (8-MOP up to 1.00 μM) is reported as “no indication for dark toxicities”. Besides, the “cell proliferation measured by MTS assay with increasing 8-MOP concentration” value in series [1] (UV-A 5 and 10 min, absence of HAL) was “decreasing cell proliferation”. In addition, in the series with Jurkat cells [2] (1.00 μM MOP/10 min UV-A), the “Number of colonies (high cell density areas formed in semisolid medium 2 weeks after treatment)” value is reported as 0.8 ± 2.0 and the “number of experiments when colonies were formed/total number of experiments” value is on record as 1/6. Also, the “mode of cell death, twenty hours following treatment” value with Jurkat cells [3] (1.00 μM 8-MOP followed by UV-A) is “almost all the cells seemed to die by apoptosis”.

For `NCC(=O)CCC(=O)O` [ALA, 5-aminolevulinic acid], the “most common side effects” value in the series with humans was “nausea, vomiting and a transient rise in liver enzymes”. Besides, the LD50 in the series on mice (mice, single dose of oral or intraperitoneal administration) is listed as 2,500 mg/kg body weight; in the series on rats (rats, single dose of oral or intraperitoneal administration) it was 2,500 mg/kg body weight. For the same compound, the “toxic effects after single intravenous injection” value with mice (mouse, in vivo, iv, 500 mg/kg) is given as “No observable toxic effects”; with rats (rat, in vivo, iv, 250 mg/kg) it was “No observable toxic effects”. Besides, the Jurkat cells killed entry in series [4] is “More than 95%”. Besides, the “killing of CD4+ T-cells, ALA plus UVA versus 8-MOP plus UVA” value in series [5] is reported as “much more effectively than 8-MOP plus UVA”. Further, in [6], the “killing of CD8+ T-cells, ALA plus UVA versus 8-MOP plus UVA” value was “much more effectively than 8-MOP plus UVA”. The “dark cytotoxic effect on leukocytes” value in series [7] is “no significant dark cytotoxic effect”. For the same compound, the “ALA-induced PpIX production, proliferative versus normal resting T-cells” value in [8] is reported as “about 15 fold”.

Regarding `CCCCCCOC(=O)CCC(=O)CN` [HAL, hexyl 5-amino-4-oxopentanoate], the “Cell proliferation, evaluated by MTS assay” value in series [1] (HAL 4 h, 10 or 20 s blue light or 5 or 10 min UV-A) is given as “decrease in a concentration-dependent manner”. In addition, in series [1] (HAL up to 11.00 μM), the “Dark toxicity (MTS assay)” value was “no indication for dark toxicities”. The “HAL concentration sufficient to decrease cell proliferation to minimum after light exposure” value in series [1] (UV-A 5 or 10 min) stood at 5.00 µM. For the same compound, the “Number of colonies (high cell density areas formed in semisolid medium 2 weeks after treatment)” value with Jurkat cells [2] (5.00 μM HAL/10 min UV-A) is on record as 0; in the series with Jurkat cells [2] (7.40 μM HAL/10 s blue light) it was 4.5 ± 5.6. Besides, the “number of experiments when colonies were formed/total number of experiments” value with Jurkat cells [2] (7.40 μM HAL/10 s blue light) is 4/6. Moreover, the “Cell appearance 20 hours after treatment” value is “mostly apoptotic + some alive, or; also recorded: mostly necrotic + some apoptotic*” in the series with Jurkat cells [3] (1.55 μM HAL, 10 min UV-A, sample to sample variations); “apoptotic + alive (similar” in the series on Jurkat cells [3] (5.00 μM HAL, 10 s UV-A); “mostly apoptotic + some alive” with Jurkat cells [3] (5.00 μM HAL, 10 s blue light); “only necrotic, no apoptotic” in the series with Jurkat cells [3] (5.00 μM HAL, 10 min UV-A). In the series on Jurkat cells [3] (5.00 μM HAL and 10 min UV-A irradiation), the “apoptotic bodies, twenty hours following treatment” value is “no apoptotic bodies could be seen”.

The values are drawn from patent US10695371B2, “Modification of extracorporeal photopherisis technology with porphyrin precursors” (Oslo Universitetssykehus HF, priority 2014, dated 2020).
